Experiments:
[1] = test system: pDAB1 (Tyr232); test: HRECs treated 5 minutes with recombinant mini-RELN, pDAB1 western blot; assay type: cell-based, human; conditions: 5 minutes, 4 ug/mL recombinant protein
Description: For in vitro screening of constructs using recombinant mini-RELN on HRECs, the cells were cultured in EBM-2 media enriched with EGM-2 Single Quots (Lonza) at 37° C. and 5% CO2 and experimentally tested at passage 7. 24 h prior experiment, cells were plated on a 6-well plate at 500,000 cells/mL. Two hours before the experiment, the cells were washed with PBS to remove residual growth media and then incubated with a starving media including EBM-2, 1% GlutaMax+0.2% Normicin. Treatments was conducted using recombinant mini RELN constructs obtained from Innovagen and Recombinant Mouse Reelin Protein from R&D systems (3820-MR-025/CF). Each treatment was incubated for 5 minutes at 4 ug/mL concentration and cells were subsequently harvested in lysis buffer was applied constituted of RIPA (Cell signaling), proteases inhibitors (cOmplete™, Mini, EDTA-free Protease Inhibitor Cocktail, Roche), phosphatases inhibitors (PhosSTOP, Roche), 1 μL of proteasome inhibitor MG-132 10 mM, 1% Triton X 100. The lysates were scraped and centrifugated at 15000 rpm for 10 minutes at 4° C. Total protein levels were quantified via BCA assay. […] We detected pDAB1 (Tyr232; 1:1000, rabbit, #3325 Cell signaling), and total protein staining (Licor). […] To quantify the results, each band was quantified using ImageJ and data expressed as pDABL:total protein ratio normalized to the control.

[2] = test system: pDAB1 (Tyr232); test: HRECs treated 5 minutes with HEK 293T-derived mini-RELN media, pDAB1 western blot; assay type: cell-based, human; conditions: HEK 293T-derived media 1:1, 1:4, 1:14, 5 minutes
Description: The effect of in vitro treatment with RELN or miniRELN protein was also evaluated. HRECs were cultured in EBM-2 media enriched with EGM-2 Single Quots (Lonza) at 37° C. and 5% CO2 and experimentally tested at passage 7. 24 h prior experiment, cells were plated on a 6-well plate at 500,000 cells/mL. Two hours before the experiment, the cells were washed with PBS to remove residual growth media and then incubated with a starving media including EBM-2, 1% GlutaMax+0,2% Normicin. Treatments was conducted using media derived from HEK 293T cells transiently transfected for 24 h with different mini-RELN constructs in the presence of Lipofectamine 2000. […] Total protein levels were quantified via BCA assay. […] We detected pDAB1 (Tyr232; 1:1000, rabbit, #3325 Cell signaling), and Beta actin (1:5000, mouse, #66009-1-Ig, Proteintech. Antibodies were diluted using Intercept® (TBS) Blocking Buffer and incubated overnight at 4C under gentle shaking. Prior secondary antibody incubation, membranes were washes 2 times using TBS-T for 10 minutes. As secondary antibodies we used IR Dye 800n CW Goat-anti-Rabbit (925-32211, Licor) and IR Dye 680 CW Goat-anti-Mouse (925-68070, Licor) both diluted 1:10000 in blocking buffer for 1 h at room temperature under gentle shaking. Membranes were washed three times with TBS-T prior IR detection using Odyssey imager. […]

For “IL2signalpeptide-6XHistag(SEQ ID NO: 62)-hReelin(AALeu1220-Ile2660) Cterm-REELINWT [225SV]”, the pDAB1 levels [1] was “increased pDAB1 levels” and the “pDAB1 / Dab1 signaling activation” value [2] was “efficacy”.
